The source made the active and inactive calls. The calls are words filed in the database; no cut-off is given here.
What was measured:
[1] = Metabolic stability in human liver microsomes assessed as half-life at 0.1 uM preincubated for 10 mins followed by NADPH addition and measured upto 60 mins by LC-MS/MS analysis; format: ADME, Microsome; settings: time < 70 min
[2] = Metabolic stability in human liver microsomes assessed as bioavailability at 0.1 uM preincubated for 10 mins followed by NADPH addition and measured upto 60 mins by LC-MS/MS analysis; format: ADME, Microsome; settings: time < 70 min
[3] = Metabolic stability in mouse liver microsomes assessed as half-life at 0.1 uM preincubated for 10 mins followed by NADPH addition and measured upto 60 mins by LC-MS/MS analysis; format: ADME, Microsome; settings: time < 70 min
[4] = test system: HOS-TE85; experiment: Antiproliferative activity against human MNNG/HOS cells assessed as inhibition of cell growth incubated for 72 hrs by CCK8 assay; format: functional, cell-based; settings: HOS-TE85, 72 h
[5] = test system: HOS-TE85; experiment: Antiproliferative activity against human MNNG/HOS cells assessed as inhibition of cell growth incubated for 24 to 72 hrs by CellTiter-Glo luminescent cell viability assay; format: functional, cell-based
[6] = test system: HOS-TE85; experiment: Inhibition of colony formation in human MNNG/HOS cells at 4 uM incubated for 10 days by crystal violet staining based light microscopic analysis; format: functional, cell-based; settings: time 10.0 day
[7] = test system: HOS-TE85; experiment: Antitumor activity against human MNNG/HOS cells xenografted in female BALB/c mouse assessed as tumor growth inhibition at 30 mg/kg, po administered twice daily for 23 days relative to control; format: functional; settings: HOS-TE85, 552 h, time 23 day, read-out: TGI
[8] = Half-life in male Wistar rat at 100 mg/kg, po; settings: in vivo

Structure (SMILES) | IC50 [4] [nM] | other results
Cc1ccnc(N2C(=O)CS[C@@H]2c2cccc(C(=O)NCCCCn3cccn3)c2)c1 |  | half-life at 0.1 µM [1]: 16.3 min; bioavailability at 0.1 µM [2]: 13.2%; half-life at 0.1 µM [3]: 5.36 min
COc1cccnc1N1C(=O)CS(=O)(=O)C1c1cccc(C(=O)NCCCCc2ccccc2)n1 (centres undefined) | 6 | half-life at 0.1 µM [1]: 2.12 min; bioavailability at 0.1 µM [2]: 1.94%; half-life at 0.1 µM [3]: 1.03 min
CNC(=O)c1cc(Oc2ccc(NC(=O)Nc3ccc(Cl)c(C(F)(F)F)c3)cc2)ccn1 [SORAFENIB] |  | IC50 [5]: 4810 nM; inhibition [6]: Active; inhibition in vivo at 30 mg/kg [7]: 39.8%; half-life [8]: 1310 min
COCCCCNC(=O)c1cccc(C2N(c3ccccn3)C(=O)C[S+]2[O-])n1 (centres undefined) | > 1000 | 
COCCCCNC(=O)c1cccc([C@@H]2N(c3ccc(F)cn3)C(=O)CS2(=O)=O)n1 | 272 | 
COC(=O)c1cccc(C2SCC(=O)N2c2ccccn2)n1 (centres undefined) | > 1000 | 
O=C(NCCCCn1cccn1)c1cccc(C2N(c3ccccn3)C(=O)CS2(=O)=O)n1 (centres undefined) | 979 | 
COCCCCNC(=O)c1cccc(C2N(c3ncccc3OC)C(=O)CS2(=O)=O)c1 (centres undefined) | > 1000 | 
CN(CCCCc1ccccc1)C(=O)c1cccc(C2N(c3ccccc3)C(=O)CS2(=O)=O)c1 (centres undefined) | > 10000 | 
COC(=O)c1cccc(C2N(c3ccccc3)C(=O)CS2(=O)=O)c1 (centres undefined) | > 10000 | 
O=C(CCCNC(=O)c1cccc(C2N(c3ccccn3)C(=O)CS2(=O)=O)n1)c1ccccc1 (centres undefined) | 203 | 
O=C(NCCCCc1ccccc1)c1cccc(C2N(c3ccccn3)C(=O)CS2(=O)=O)n1 (centres undefined) | 109 | 
O=C(NCCCCc1ccccc1)c1cccc(C2N(Cc3ccccc3)C(=O)CS2(=O)=O)c1 (centres undefined) | > 10000 | 
COC(=O)CCNC(=O)c1cccc(C2N(c3ccccn3)C(=O)CS2(=O)=O)n1 (centres undefined) | > 1000 | 
O=C(NCCCCc1ccccc1)c1cccc(C2N(c3ccc(-c4ccccc4)cc3)C(=O)CS2(=O)=O)c1 (centres undefined) | > 10000 | 
O=C(NCCCCc1ccccc1)c1cccc(C2N(CCc3ccccc3)C(=O)CS2(=O)=O)c1 (centres undefined) | > 10000 | 
COCCCCNC(=O)c1cccc(C2N(c3ncccc3OC)C(=O)C[S+]2[O-])n1 (centres undefined) | > 1000 | 
O=C(NCCCCc1ccccc1)c1cccc(C2N(c3cccc4ccccc34)C(=O)CS2(=O)=O)c1 (centres undefined) | > 10000 | 
O=C(NCCCCc1ccccc1)c1cccc(C2N(c3ncccc3F)C(=O)CS2(=O)=O)n1 (centres undefined) | 25 | 
COCCCCNC(=O)c1cccc(C2N(c3ccccn3)C(=O)CS2(=O)=O)n1 (centres undefined) | 149 | half-life at 0.1 µM [1]: 90.6 min; bioavailability at 0.1 µM [2]: 45.8%; half-life at 0.1 µM [3]: 56.5 min
Cc1ccc(N2C(=O)CS(=O)(=O)C2c2cccc(C(=O)NCCCCc3ccccc3)n2)nc1 (centres undefined) | 31 | 
COc1ccccc1N1C(=O)CS(=O)(=O)C1c1cccc(C(=O)NCCCCc2ccccc2)c1 (centres undefined) | 31 | 
Cc1cccc(N2C(=O)CS(=O)(=O)C2c2cccc(C(=O)NCCCCc3ccccc3)n2)n1 (centres undefined) | 775 | 
